Source: patent publication US11857634B2, “Cationic amphiphilic polymers for codelivery of hydrophobic agents and nucleic acids” (University of Pittsburgh—Of the Commonwealth System of …, priority 2018, dated 2024)
Values after ≈ are worked out from the molar mass of the structure shown. “Also recorded” adds a separate entry of the source.

Tests used:
[1] = In vitro DOX release from POEG-st-Pmor micelles by dialysis; type: physicochemical; details: first 4 hours, PBS, 37 °C
Protocol: In vitro drug release study for POEG-st-Pmor micelles. The in vitro DOX release kinetics for the POEG-st-Pmor micelles was determined by a dialysis method. Briefly, 0.5 ml of DOX-loaded micelles and micelles co-loaded with DOX and IL-36γ plasmid at a DOX concentration of 0.5 mg/mL were placed into a dialysis bag (MW cutoff 3,500), respectively. The dialysis bag was incubated in 100 mL PBS with gentle shaking at 37° C. Two ml of PBS solution outside of the dialysis bag was collected at different time points and equal amount of fresh PBS was added back. The concentrations of released DOX were determined by HPLC.

[2] = Cellular uptake of DOX by confocal laser scanning microscopy (POEG-st-Pmor); type: cell-based; details: 2 h of incubation
Description: The cellular uptake of DOX-loaded POEG-st-Pmor micelles was investigated by confocal laser scanning microscopy with free DOX as a control. […] This may, for example, be a result of different cellular uptake routes of free DOX and DOX micelles.

[3] = tested on: 4T1.2 breast cancer lung metastasis; assay: Mouse model of breast cancer lung metastasis (4T1.2), POEG-st-Pmor formulations; type: in vivo, mice; details: i.v. every three days for three times; DOX 5 mg/kg, plasmid 50 μg per mouse
Protocol: Mouse model of breast cancer lung metastasis. Female Balb/c mice were injected with 2×10^5 4 T1.2 cells through the tail vein. Five days after tumor cell injection, mice were randomly divided into 6 groups. POEG-st-Pmor was chosen as a representative carrier system for codelivery of IL-36γ plasmid and DOX. […] The PBS treatment group was used as control. DOX dosage was 5 mg/kg and plasmid dosage was 50 μg per mouse. Lung tissues were harvested and weighted 11 days after the first injection. Pulmonary metastases were enumerated by intra-tracheal injection of India ink solution. India ink-injected lungs were washed in Feket's solution (300 ml 70% EtOH, 30 ml 37% formaldehyde and 5 ml glacial acetic acid) and white tumor nodules against a dark blue lung background were counted.
Histopathological analysis. The lung tissues were harvested and fixed in 10% formalin after the above treatments. The fixed samples were then embedded in paraffin and the tissue sections were stained with hematoxylin/eosin and analyzed for the presence of metastases under microscope. The total number of metastases per lung section was counted in different treatment groups.

[4] = tested on: immune cells in lung tissues; assay: Tumor-infiltrating lymphocytes and MDSCs in tumor-bearing lungs, flow cytometry (POEG-st-Pmor); type: in vivo, mice; details: compared to untreated control group
Protocol: Analysis of tumor-infiltrating lymphocytes and myeloid-derived suppressor cells. Lung tissues were collected in serum free RPMI medium and cut mechanically with scissors. Liberase TL (0.3 mg/ml) and DNase I (0.3 mg/ml) were used to digest the lung tissues and tumor nodules. Tissues were further grinded and filtered through a […] cell strainer. TILs and MDSC cells were further purified and stained with fluorescence-labeled antibody for flow cytometry analysis using a FACS flow cytometer.

[5] = DOX release from POEG-PCre micelles by dialysis against DPBS; type: physicochemical; details: first 4 h, DPBS pH 7.4, 37 °C
Protocol: The release kinetics of DOX from DOX-loaded POEG-PCre micelles was investigated by dialysis against DPBS of pH 7.4 at 37° C. […] To the contrary, only 16% of DOX was released from DOX/POEG-PCre micelles in first 4 h, and less than 40% of DOX was released for an extended period of 96 h.

[6] = tested on: 4T1.2 cells; assay: Intracellular co-delivery of DOX and MFP488-labeled tRNA-mir-34a, confocal microscopy; type: cell-based, murine; details: 4 h
Protocol: To monitor intracellular co-delivery of DOX and tRNA-mir-34a, tRNA-mir-34a was labeled with MFP488 fluorescent dye to visualize the cell uptake of tRNA-mir-34a along with red fluorescence of DOX. 4T1.2 cells were incubated for 4 h with micelle complexes carrying DOX and/or MFP488-labeled tRNA-mir-34a and then observed under a confocal microscope. Naked tRNA-mir-34a without any transfection agent was used as a negative control.

[7] = tested on: Dicer; assay: Induction of Dicer after treatment; type: cell-based; details: dose dependent
[8] = tested on: 4T1.2 cells; assay: In vitro cytotoxicity, MTT assay (POEG-PCre formulations); type: cell-based, murine; details: 48 h; DOX 7.8-1,000 ng/mL, tRNA-mir 0.78-100 nM, carrier 78-10000 ng/mL
Protocol: The in vitro cytotoxicity of DOX+tRNA-mir-34a co-loaded POEG-PCre micelles was evaluated by MTT assay. Tumor cells were treated with various formulations for 48 h, with the doses of DOX, tRNA-mir, and POEG-PCre carrier ranging from 7.8 to 1,000 ng/mL, 0.78 nM to 100 nM, and 78 ng/mL to 10000 ng/mL, respectively. […] A similar trend was also observed in MDA-MB-231 breast cancer cells (FIG. 14B).

[9] = tested on: breast cancer cells; assay: Apoptosis assay, Annexin V/propidium iodide flow cytometry; type: cell-based
Protocol: The enhanced cytotoxicity of DOX+tRNA-mir-34a-co-loaded nanocomplexes was assessed via apoptosis assay. Cell apoptosis was evaluated quantitatively by Annexin V/propidium iodide flow cytometry.

[10] = tested on: 4T1.2 cancer cells; assay: Cell migration, wound closure assay; type: cell-based, murine; details: 4T1.2, 24 h
Description: Besides cancer cell viability, cell migration represents a critical process for tumor progression and metastasis. MiR-34a has been reported to be functional as an anti-metastatic miRNA by directly targeting CD44 and NOTCH-1. Therefore, the effect of tRNA-mir-34a and DOX co-loaded nanocomplexes on the cell migration was investigated using the wound closure assay.

[11] = tested on: 4T1.2 tumor metastasis; assay: Breast cancer lung metastasis model (4T1.2), POEG-PCre formulations; type: in vivo, mice; details: i.v. every 3 d for 3 times, analysed 5 days after last treatment
Protocol: The in vivo anti-tumor efficacy of DOX+tRNA-mir-34a co-loaded nanocomplexes was evaluated in a breast cancer lung metastasis model, generated by tail-vein injection of 4T1.2 tumor cells into female Balb/c mice. Five days after tumor inoculation, various treatments were applied to each group of mice (n=5) via i.v. administration every 3 d for 3 times. The tumor burdens in the lungs were analyzed 5 days after the last treatment. […] No significant decrease of body weight was observed, indicating the safety of the formulation (FIG. 15C).
To further confirm the anticancer efficacy, H&E staining and immunohistochemical analysis of Ki67 were performed in tumor-bearing lungs.

[12] = Toxicity: body weight, blood chemistry, H&E staining of major organs; set-up: species or system mice; details: mouse, in vivo
Protocol: In addition, blood chemistry tests were performed to evaluate the effect of our formulations on liver and kidney functions. […] Moreover, the H & E staining of major organs was carried out to further evaluate the potential toxicity of different treatments.

[13] = tested on: immune cells in tumor-bearing lungs; assay: Immune cells in tumor-bearing lungs (POEG-PCre formulations); set-up: species or system mice; details: mouse, in vivo
Description: Treatment with tRNA-mir-34a alone or tRNA-mir-34a/DOX combination reduced the numbers of PD1+ CD8 cells (FIG. 16D) and T-regulatory cells (Tregs) (FIG. 16E).

[14] = Intracellular uptake and distribution of DOX at pH 6.8 and 7.4, CLSM; type: cell-based; details: 4 h incubation
Description: Intracellular uptake and distribution of DOX-loaded micelles and IL-12/DOX co-loaded PMet-P(cdmPEG2K) micelleplexes was investigated by CLSM.

[15] = tested on: 4T1.2 breast cancer cells; assay: In vitro cytotoxicity, MTT assay (POEG-st-Pmor formulations); details: 4T1.2 cells, 72 h
Protocol: Briefly, 4T1.2 cells (2,000 cells/well) were seeded in 96-well plates for overnight and were treated with various concentrations of DOX formulations for 72 h. MTT solution was added to each well and MTT formazan was solubilized by DMSO after 2 h of incubation. The absorbance in each well was measured by a microplate reader at a wavelength of 570 nm. Cell viability was calculated as [(ODtreat−ODblank)/(ODcontrol−ODblank)×100%]. The cytotoxicity of POEG-st-Pmor micelles alone was similarly tested in 4T1.2 cells as described above.

DOX released [1]: 80%
DOX released [5]: more than 80%
SMILES: COc1cccc2c1C(=O)c1c(O)c3c(c(O)c1C2=O)C[C@@](O)(C(=O)CO)C[C@@H]3O[C@H]1C[C@H](N)[C@H](O)[C@H](C)O1 [free DOX, Doxorubicin]
Intracellular location of DOX signals [2]: largely found in the nucleus
Antitumor activity / inhibition of lung metastasis [3]: significant inhibition of lung metastasis; also recorded: significant activity
CD4+ T cells in lung tissues [4]: significant increase
CD8+ T cells in lung tissues [4]: significant increase
Intracellular location of fluorescence signals [6]: largely found in the nucleus
Dicer expression [7]: induction of Dicer
Cell growth inhibition / cytotoxicity [8]: inhibited the proliferation of tumor cells in a dose dependent manner
Cell apoptosis [9]: ~31%
Inhibition of cell migration [10]: ~40%
Inhibition of lung metastasis / tumor nodules in lungs [11]: Dramatic reduction in the number of tumor nodules
Pathological changes, H&E staining of major organs [12]: signs of myocytolysis and myofibrillolysis with fibrils dearrangement; also recorded: hepatocellular vacuolation
Numbers of CD4 cells in tumor-bearing lungs [13]: significant increase
Numbers of CD8 cells in tumor-bearing lungs [13]: significant increase
Numbers of MDSC [13]: trend of decreases
Numbers of functional CD8 (IFN-γ+ CD8) cells [13]: trend of increase
Cellular uptake compared with DOX-loaded micelles [14]: slightly stronger fluorescence signal
Intracellular DOX fluorescence at pH 6.8 versus pH 7.4 [14]: not significantly affected by pH
Cytotoxicity ([15]; DOX 4 to 1000 ng/mL): dose-dependent cell killing profile
IC50 ([15]; MTT, as DOX): 0.13 µg/mL (≈ 0.239 µM)
